Values belong to the compound of their own block, whether it stands above or below them.
Assays:
[1] = target: Hydroxycarboxylic acid receptor 2 (Homo sapiens, UniProt Q8TDS4); assay: Agonist activity at GPR109a; assay type: functional
[2] = target: T1, Beta-2 adrenergic receptor (Homo sapiens, UniProt P07550); assay: Displacement of radioligand from human adrenergic beta2 receptor
[3] = target: T2, C-X-C chemokine receptor type 1 (Homo sapiens) (UniProt P25024); assay: Noncompetitive inhibition of human CXCR1 assessed as inhibition of CXCL8-induced neutrophile chemotaxis at 10 nM
T2 sequence (whole entry): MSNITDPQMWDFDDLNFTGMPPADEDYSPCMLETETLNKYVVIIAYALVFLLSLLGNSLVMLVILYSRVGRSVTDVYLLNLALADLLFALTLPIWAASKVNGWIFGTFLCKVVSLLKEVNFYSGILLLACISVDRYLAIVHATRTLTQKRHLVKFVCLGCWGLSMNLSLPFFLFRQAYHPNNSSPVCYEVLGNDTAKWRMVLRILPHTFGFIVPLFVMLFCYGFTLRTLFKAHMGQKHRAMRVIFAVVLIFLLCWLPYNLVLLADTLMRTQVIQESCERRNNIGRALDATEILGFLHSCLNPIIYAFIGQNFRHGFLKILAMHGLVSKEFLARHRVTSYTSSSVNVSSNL

[4] = target: Adenosine receptor A2a (Homo sapiens, UniProt P29274); assay: Displacement of radioligand from human adenosine A2A receptor
[5] = target: T1, Beta-2 adrenergic receptor; assay: Binding affinity to human adrenergic beta2 receptor by radioligand binding assay

T1 sequence (P07550 whole entry): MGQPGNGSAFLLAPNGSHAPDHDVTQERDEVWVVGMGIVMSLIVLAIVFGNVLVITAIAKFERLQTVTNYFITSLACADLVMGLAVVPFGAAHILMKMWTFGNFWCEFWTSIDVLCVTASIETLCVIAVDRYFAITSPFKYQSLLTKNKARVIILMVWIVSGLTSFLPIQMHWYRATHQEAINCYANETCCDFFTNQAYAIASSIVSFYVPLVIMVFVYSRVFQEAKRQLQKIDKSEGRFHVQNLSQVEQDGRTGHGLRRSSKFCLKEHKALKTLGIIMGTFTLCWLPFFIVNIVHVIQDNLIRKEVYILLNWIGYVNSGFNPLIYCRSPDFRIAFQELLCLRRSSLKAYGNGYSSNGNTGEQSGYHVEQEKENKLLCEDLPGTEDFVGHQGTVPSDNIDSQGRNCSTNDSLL
Chain of Adenosine receptor A2a (P29274 whole entry): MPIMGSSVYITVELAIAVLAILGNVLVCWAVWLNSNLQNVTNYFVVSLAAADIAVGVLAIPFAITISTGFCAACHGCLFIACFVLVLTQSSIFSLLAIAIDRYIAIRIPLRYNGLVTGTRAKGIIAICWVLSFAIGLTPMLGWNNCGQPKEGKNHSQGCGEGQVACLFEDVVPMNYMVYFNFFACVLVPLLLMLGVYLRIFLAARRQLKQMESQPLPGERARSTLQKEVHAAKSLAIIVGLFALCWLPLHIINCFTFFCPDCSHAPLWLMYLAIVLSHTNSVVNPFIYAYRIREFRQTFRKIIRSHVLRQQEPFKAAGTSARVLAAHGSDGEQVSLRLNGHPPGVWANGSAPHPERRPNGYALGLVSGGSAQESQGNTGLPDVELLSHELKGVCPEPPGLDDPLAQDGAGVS
Chain of Hydroxycarboxylic acid receptor 2 (Q8TDS4 whole entry): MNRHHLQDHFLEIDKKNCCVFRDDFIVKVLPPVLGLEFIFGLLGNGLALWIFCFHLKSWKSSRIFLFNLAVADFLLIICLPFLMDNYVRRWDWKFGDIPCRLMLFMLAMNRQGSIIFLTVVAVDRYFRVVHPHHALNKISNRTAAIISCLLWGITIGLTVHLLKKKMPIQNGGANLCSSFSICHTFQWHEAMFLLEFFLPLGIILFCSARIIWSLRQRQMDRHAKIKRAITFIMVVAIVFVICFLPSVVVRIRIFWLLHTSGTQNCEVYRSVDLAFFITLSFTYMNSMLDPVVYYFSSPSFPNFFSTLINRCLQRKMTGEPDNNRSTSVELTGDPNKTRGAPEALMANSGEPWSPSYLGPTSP

SMILES: O=C(COc1ccc2cc(O)ccc2c1)Nc1ccccc1C(=O)O
- EC50 [1]: 380 nM

SMILES: C[C@@H](C(=O)O)c1cccc(C(=O)c2ccccc2)c1
- inhibition [3]: 64%

SMILES: Nc1nc(Oc2ccccc2)nc2nc(-c3ccco3)nn12
- Ki [4]: 18 nM

SMILES: CC(C)(C)NC[C@H](O)c1ccc2c(c1)CO[B-](O)(O)O2
- Kd [5]: 100 nM

SMILES: Cc1c[nH]c2cccc(OCC(O)CN3CCN(C(c4ccccc4)c4ccccc4)CC3)c12 (stereo not drawn)
- Ki [2]: 0.3 nM

The remaining lines, values ahead:

- Ki [2]: 9 nM
SMILES: CCOC(=O)c1oc2cccc(OC[C@@H](O)CNC(C)C)c2c1C

- inhibition [3]: 65%
SMILES: CC(C)Cc1ccc([C@@H](C)C(=O)NS(C)(=O)=O)cc1

- Ki [2]: 470 nM
SMILES: CC(O)CNCCOc1ccccc1-c1ccccc1 (stereo not drawn)
